Data from the supplement of paper PMC10307832.

What was measured:
Test in all cases: relative viability (nuclei count vs DMSO), 5 days (fraction); higher = more cells survive
NCI-H23 = tested on: NCI-H23
Method in brief: (§1)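 Lung cancer cell lines were pin-tool dosed in 1536-well plates on the day after seeding, with either a lone drug or a fixed anchor-drug dose plus five library-drug doses (not always all listed) in √10 steps. Nuclei were counted on 4× images after 5 days. Relative viability is the ratio of treated-well to vehicle-well nuclei counts, with each value a median of duplicate plates.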

LU99A = tested on: LU99A
Method in brief: as §1

NCI-H650 = tested on: NCI-H650
Method in brief: as §1

NCI-H1650 = tested on: NCI-H1650
Method in brief: as §1

PC-3 [JPC-3] = tested on: PC-3 [JPC-3]
Method in brief: as §1

COR-L23 = tested on: COR-L23
Method in brief: as §1

NCI-H1651 = tested on: NCI-H1651
Method in brief: as §1

NCI-H2085 = tested on: NCI-H2085
Method in brief: as §1

HCC-366 = tested on: HCC-366
Method in brief: as §1

HCC-78 = tested on: HCC-78
Method in brief: as §1

H3255 = tested on: H3255
Method in brief: as §1

HARA = tested on: HARA
Method in brief: as §1

NCI-H460 = tested on: NCI-H460
Method in brief: as §1

NCI-H358 = tested on: NCI-H358
Method in brief: as §1

201T = tested on: 201T
Method in brief: as §1

SK-LU-1 = tested on: SK-LU-1
Method in brief: as §1

NCI-H3122 = tested on: NCI-H3122
Method in brief: as §1

NCI-H2087 = tested on: NCI-H2087
Method in brief: as §1

NCI-H596 = tested on: NCI-H596
Method in brief: as §1

NCI-H322M = tested on: NCI-H322M
Method in brief: as §1

NCI-H1755 = tested on: NCI-H1755
Method in brief: as §1

Cc1cn(-c2cc(NC(=O)c3ccc(C)c(Nc4nccc(-c5cccnc5)n4)c3)cc(C(F)(F)F)c2)cn1 [Nilotinib] + C[C@@H](Oc1cc(-c2cnn(C3CCNCC3)c2)cnc1N)c1c(Cl)ccc(F)c1Cl [Crizotinib] (partner 1 µM)
relative viability (NCI-H23; first compound 0.001 µM): 0.471
relative viability (NCI-H23; first compound 0.003162 µM): 0.442
relative viability (NCI-H23; first compound 0.01 µM): 0.6
relative viability (NCI-H23; first compound 0.03162 µM): 0.328
relative viability (NCI-H23; first compound 0.1 µM): 0.378
relative viability (LU99A; first compound 0.001 µM): 0.542
relative viability (LU99A; first compound 0.003162 µM): 0.545
relative viability (LU99A; first compound 0.01 µM): 0.629
relative viability (LU99A; first compound 0.03162 µM): 0.429
relative viability (LU99A; first compound 0.1 µM): 0.343
relative viability (NCI-H650; first compound 0.001 µM): 0.637
relative viability (NCI-H650; first compound 0.003162 µM): 0.551
relative viability (NCI-H650; first compound 0.01 µM): 0.844
relative viability (NCI-H650; first compound 0.03162 µM): 0.601
relative viability (NCI-H650; first compound 0.1 µM): 0.715
relative viability (NCI-H1650; first compound 0.001 µM): 1.07
relative viability (NCI-H1650; first compound 0.003162 µM): 1.1
relative viability (NCI-H1650; first compound 0.01 µM): 0.998
relative viability (NCI-H1650; first compound 0.03162 µM): 0.777
relative viability (NCI-H1650; first compound 0.1 µM): 0.87
relative viability (PC-3 [JPC-3]; first compound 0.001 µM): 0.987
relative viability (PC-3 [JPC-3]; first compound 0.003162 µM): 1.23
relative viability (PC-3 [JPC-3]; first compound 0.01 µM): 1.06
relative viability (PC-3 [JPC-3]; first compound 0.03162 µM): 0.882
relative viability (PC-3 [JPC-3]; first compound 0.1 µM): 0.88
relative viability (COR-L23; first compound 0.001 µM): 0.601
relative viability (COR-L23; first compound 0.003162 µM): 0.625
relative viability (COR-L23; first compound 0.01 µM): 0.848
relative viability (COR-L23; first compound 0.03162 µM): 0.465
relative viability (COR-L23; first compound 0.1 µM): 0.625
relative viability (NCI-H1651; first compound 0.001 µM): 0.853
relative viability (NCI-H1651; first compound 0.003162 µM): 0.986
relative viability (NCI-H1651; first compound 0.01 µM): 1
relative viability (NCI-H1651; first compound 0.03162 µM): 0.838
relative viability (NCI-H1651; first compound 0.1 µM): 0.816
relative viability (NCI-H2085; first compound 0.001 µM): 0.982
relative viability (NCI-H2085; first compound 0.003162 µM): 0.895
relative viability (NCI-H2085; first compound 0.01 µM): 0.971
relative viability (NCI-H2085; first compound 0.03162 µM): 0.721
relative viability (NCI-H2085; first compound 0.1 µM): 0.884
relative viability (HCC-366; first compound 0.001 µM): 0.484
relative viability (HCC-366; first compound 0.003162 µM): 0.627
relative viability (HCC-366; first compound 0.01 µM): 1.38
relative viability (HCC-366; first compound 0.03162 µM): 0.389
relative viability (HCC-366; first compound 0.1 µM): 0.609
relative viability (HCC-78; first compound 0.001 µM): 0.351
relative viability (HCC-78; first compound 0.003162 µM): 0.239
relative viability (HCC-78; first compound 0.01 µM): 0.432
relative viability (HCC-78; first compound 0.03162 µM): 0.333
relative viability (HCC-78; first compound 0.1 µM): 0.361
relative viability (H3255; first compound 0.001 µM): 0.773
relative viability (H3255; first compound 0.003162 µM): 0.99
relative viability (H3255; first compound 0.01 µM): 1.07
relative viability (H3255; first compound 0.03162 µM): 0.814
relative viability (H3255; first compound 0.1 µM): 1.11
relative viability (HARA; first compound 0.001 µM): 1.09
relative viability (HARA; first compound 0.003162 µM): 1.42
relative viability (HARA; first compound 0.01 µM): 1.61
relative viability (HARA; first compound 0.03162 µM): 0.886
relative viability (HARA; first compound 0.1 µM): 1.05
relative viability (NCI-H460; first compound 0.001 µM): 0.752
relative viability (NCI-H460; first compound 0.003162 µM): 1.06
relative viability (NCI-H460; first compound 0.01 µM): 1.56
relative viability (NCI-H460; first compound 0.03162 µM): 0.245
relative viability (NCI-H460; first compound 0.1 µM): 0.901
relative viability (NCI-H358; first compound 0.001 µM): 0.447
relative viability (NCI-H358; first compound 0.003162 µM): 0.473
relative viability (NCI-H358; first compound 0.01 µM): 0.407
relative viability (NCI-H358; first compound 0.03162 µM): 0.469
relative viability (NCI-H358; first compound 0.1 µM): 0.735
relative viability (201T; first compound 0.001 µM): 1.01
relative viability (201T; first compound 0.003162 µM): 1.07
relative viability (201T; first compound 0.01 µM): 0.91
relative viability (201T; first compound 0.1 µM): 1.07
relative viability (SK-LU-1; first compound 0.001 µM): 0.893
relative viability (SK-LU-1; first compound 0.003162 µM): 0.888
relative viability (SK-LU-1; first compound 0.01 µM): 0.933
relative viability (SK-LU-1; first compound 0.03162 µM): 0.805
relative viability (SK-LU-1; first compound 0.1 µM): 0.693
relative viability (NCI-H3122; first compound 0.001 µM): 0.298
relative viability (NCI-H3122; first compound 0.003162 µM): 0.314
relative viability (NCI-H3122; first compound 0.01 µM): 0.33
relative viability (NCI-H3122; first compound 0.03162 µM): 0.3
relative viability (NCI-H3122; first compound 0.1 µM): 0.328
relative viability (NCI-H2087; first compound 0.001 µM): 0.626
relative viability (NCI-H2087; first compound 0.003162 µM): 0.806
relative viability (NCI-H2087; first compound 0.01 µM): 0.947
relative viability (NCI-H2087; first compound 0.03162 µM): 0.702
relative viability (NCI-H2087; first compound 0.1 µM): 0.667
relative viability (NCI-H596; first compound 0.001 µM): 0.937
relative viability (NCI-H596; first compound 0.01 µM): 1.07
relative viability (NCI-H596; first compound 0.03162 µM): 0.958
relative viability (NCI-H596; first compound 0.1 µM): 1.1
relative viability (NCI-H322M; first compound 0.001 µM): 1.06
relative viability (NCI-H322M; first compound 0.003162 µM): 0.869
relative viability (NCI-H322M; first compound 0.03162 µM): 0.727
relative viability (NCI-H322M; first compound 0.1 µM): 0.984
relative viability (NCI-H1755; first compound 0.001 µM): 0.778
relative viability (NCI-H1755; first compound 0.003162 µM): 0.962
relative viability (NCI-H1755; first compound 0.01 µM): 1.2
relative viability (NCI-H1755; first compound 0.03162 µM): 0.666
relative viability (NCI-H1755; first compound 0.1 µM): 0.745
